In this experiment the test system is M. tuberculosis H37Rv growth inhibition, 7H9 media. As to the kind of experiment: M. tuberculosis growth inhibition, HTS (AID 449762).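 On all read-outs here: bacterial growth assessed after seven days of incubation.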 To be noted: for IC90: measured here: IC90 growth inhibition.

The IC50 is the concentration that gives 50% inhibition. In general, IC90 refers to the concentration needed for an effect of 90%. The low end stands for greater potency, the high end for weaker potency.

Results filed as inconclusive are left out.

`Cc1ccc(CN2C3CCCC2CC(NC(=S)NCc2ccccc2)C3)cc1` (stereo unspecified): the 50% inhibitory concentration (IC50) was 45.8 µM and the IC90 worked out at 52.4 µM.
On the same counts, the results for `O=C(NC(=S)Nc1ccc(N2CCCCC2)c(Cl)c1)c1cccs1` are 20.2 µM and 27.1 µM.
On to `CCN(CC)CCOC(=O)c1ccc(N/C=C(/C#N)c2nc(-c3ccc4c(c3)OCO4)cs2)cc1`, for which the half-inhibitory concentration (IC50) was 28.4 µM and the IC90 was found to be 53.3 µM.
For `CC1(C)CC(=O)c2c(O)cc(OCc3ccc(Br)cc3)cc2O1`, in that order: 42 µM and 67.3 µM.
On the same counts, the results for `FC(F)(F)c1ccc(Nc2nnnc3ccccc23)cc1` are 90.2 µM and 99.6 µM.
Turning to `Cc1cccc(-c2oc3ccc(-c4ccc5c(c4)OCO5)cc3c2C#Cc2cncn2C)c1`, the 50% inhibitory concentration (IC50) was 2.9 µM and the 90% effect concentration (IC90) was determined as 3.36 µM.
For `COc1ccc(NC(C)C(=O)Nc2ccc(C(C)(C)C)cc2)cc1Cl` (stereo unspecified), in that order: 86.1 µM and > 100 µM.
For `COc1ccc(C2CC2/C(C)=N/OC(=O)c2ccc(F)cc2)cc1` (stereo unspecified), in that order: 13.7 µM and 51.6 µM.
On the same counts, the results for `O=C(N/N=C(\c1ccccc1)c1ccccn1)c1ccccc1Cl` are 3.65 µM and 22.1 µM.
Take `Clc1ccc(CSc2ncn[nH]2)cc1`: the IC90 was > 100 µM.
In the case of `CC1(C)CC(=O)C2=C(C1)NC(Nc1nc3ccccc3o1)=NC2c1ccccn1` (stereo unspecified), the IC50 was < 0.2 µM and the concentration for an effect of 90% (IC90) worked out at 2.31 µM.
Regarding `CCn1cnc2sc(C(=O)Oc3ccc(Br)cc3)c(C)c2c1=O`, the IC50 is 3.2 µM and the 90% effect concentration (IC90) worked out at 11.3 µM.
For `O=C(Nc1cccc(-c2nc3ccccc3s2)c1)c1cc(-n2cnnc2)ccc1Cl`, in that order: 11.6 µM and 13.1 µM.
For `O=C(N[C@H]1CCC(=O)N(CCSc2ccc(Br)cc2)CC1)OCc1ccccc1`, in that order: 23.3 µM and 28.6 µM.
As to `CCCCOCCCn1c(-c2ccco2)nc2nc3ccccc3nc21`, the IC50 was 94.9 µM and the IC90 is > 100 µM.
For `COC(=O)CCc1nc2c(C#N)c(-c3ccc(Cl)cc3)ccn2n1`, in that order: 1.68 µM and 3.31 µM.
With `Cc1cccc(OCc2n(CC(=O)OC3CC(C)CCC3C(C)C)c3ccccc3[n+]2C)c1` (stereo unspecified), the IC50 was 7.43 µM and the 90% effect concentration (IC90) stood at 9.6 µM.
On the same counts, the results for `Cn1c(=O)c2c3c(sc2n2c(SCC(N)=O)nnc12)CC(C(C)(C)C)CC3` (stereo unspecified) are 19.4 µM and 32.9 µM.
Consider `CCCCn1c(NCc2ccc3c(c2)OCO3)nc2ccccc21`, for which the IC50 was 19 µM and the concentration for an effect of 90% (IC90) came out at 31.1 µM.
For `COc1ccc(C(=O)COC(=O)[C@H](C)Nc2ccc(C(F)(F)F)cc2[N+](=O)[O-])cc1`, in that order: 11.2 µM and > 25 µM.
On the same counts, the results for `CC(C)(C)CC(C)(C)c1ccc(OCCOCC[N+](C)(C)Cc2ccccc2)cc1` are 26.2 µM and 30 µM.
For `Oc1ccccc1/C=N/NC(=S)NC1CC2CC1C1C=CCC21` (stereo unspecified), the 50% inhibitory concentration (IC50) was 11.1 µM and the 90% effect concentration (IC90) was determined as 12.3 µM.
Consider `Cc1cc(C)c(CSc2ncc(-c3ccc([N+](=O)[O-])cc3)[nH]2)c(C)c1`, for which the half-inhibitory concentration (IC50) is 42.5 µM and the IC90 came out at 62.8 µM.
On the same counts, the results for `CCOc1cc(/C=N/Nc2nc(Nc3ccccc3)nc(N3CCCCC3)n2)ccc1OCC(=O)O` are 7.04 µM and 23.4 µM.
Regarding `Cc1cc(N2CCC(C)CC2)nc(-n2nc(C)cc2C)n1`, the concentration for half-maximal inhibition (IC50) was < 0.2 µM and the concentration for an effect of 90% (IC90) is 5.47 µM.
On the same counts, the results for `CCCc1cc(-c2nc(N)ncc2-c2ccc3c(c2)OCCCO3)c(O)cc1OC` are 48.6 µM and 54.9 µM.
For `Cc1[nH]n(S(=O)(=O)Cc2ccccc2)c(=O)c1N=Nc1ccccc1Cl`, in that order: 5.57 µM and 8.53 µM.
Consider `Oc1cccc(-c2nc3ccc4ccccc4c3c3c2CCC3)c1`, for which the concentration for half-maximal inhibition (IC50) is 7.31 µM and the IC90 came to 26.8 µM.
For `COc1cc2nc(Nc3ccc(C)c(Cl)c3)nc(N)c2cc1OC`, in that order: 33.2 µM and 98.8 µM.
On the same counts, the results for `O=C(Nc1cc(C(F)(F)F)ccc1Cl)C(Sc1cccc[n+]1[O-])c1ccccc1` (stereo unspecified) are 39.2 µM and 47.9 µM.
For `O=S(Cc1ccc(Br)cc1)Cc1nnc(SCc2ccc(Cl)cc2)n1-c1ccccc1` (stereo unspecified), in that order: 91.1 µM and > 100 µM.
On to `CCOc1ccc(-n2c(O)c(/C=N/Nc3nnc(C)c(=O)[nH]3)c3ccccc3c2=O)cc1`, for which the IC50 was 11.3 µM and the 90% effect concentration (IC90) was > 100 µM.
With `O=C(c1cc2cc(Cl)ccc2[nH]1)N1CCN(Cc2ccc3c(c2)OCO3)CC1`, the IC90 is > 100 µM.
With `CC[N+](C)(CC)CCCCOc1ccc2c(c1)C(=O)c1cc(OCCCC[N+](C)(CC)CC)ccc1-2`, the half-inhibitory concentration (IC50) was 0.96 µM and the 90% effect concentration (IC90) is 1.52 µM.
Turning to `CC1CCN(C(=O)C2CCN(c3nnc(-n4cccc4)s3)CC2)CC1`, the IC50 is 2.96 µM and the concentration for an effect of 90% (IC90) is 3.37 µM.
Turning to `O=C(C[n+]1ccc(C(=O)N/N=C/c2ccc(O)cc2)cc1)c1ccccc1`, the 50% inhibitory concentration (IC50) was 4.47 µM and the IC90 is > 100 µM.
On the same counts, the results for `O=C(CSc1ccc(Cl)cc1)N1CCC(c2nc3ccccc3s2)CC1` are 85.9 µM and 92.9 µM.
As for `COc1ccc(-c2ccnc3nc(N4CCN(c5ccccc5)CC4)nn23)cc1`, the 50% inhibitory concentration (IC50) was 36.4 µM and the 90% effect concentration (IC90) was 47.9 µM.
For `O=[N+]([O-])c1ccc(N2CCCCC2)s1`, in that order: 7.61 µM and 17.9 µM.
On the same counts, the results for `COCCCN=C1NN=C(c2cc(C)n(Cc3ccco3)c2C)CS1` are 60.9 µM and 87.4 µM.
Turning to `CCn1c(=O)c(CCC(=O)N2CCN(c3ccccn3)CC2)c(C)c2c(C)nn(-c3cccc(C)c3)c21`, the IC50 was 19.5 µM and the IC90 is 27.5 µM.
On the same counts, the results for `CCOc1cc(/C=C2\COc3ccccc3C2=O)cc(Br)c1OCC(=O)N(C)C` are 2.75 µM and 6.63 µM.
On the same counts, the results for `COC(=O)C1C2c3ccccc3OC1(C)N=c1s/c(=C/c3cnn(C)c3C)c(=O)n12` (stereo unspecified) are 0.97 µM and 13.1 µM.
On the same counts, the results for `Cc1ccc(C#CC[N+]2(CC#Cc3ccc(C)cc3)CCCCC2)cc1` are 12.7 µM and 14.4 µM.
With `C=CCN(CC=C)C(=S)NC(=O)c1ccc(-c2ccccc2)cc1`, the IC50 was 10.8 µM and the IC90 came out at 14.1 µM.
As to `Fc1ccc(N/N=C2/CC(c3ccccc3)Oc3ccccc32)c(F)c1` (stereo unspecified), the IC90 is > 100 µM.
Consider `Oc1ccc(CN2CCc3ccccc3C2)c2cccnc12`, for which the IC50 is 61.5 µM and the IC90 was > 100 µM.
As for `COc1ccc(OC)c(C(=O)NC(CC(N)=O)c2ccc(NCc3ccc(F)c(F)c3)c([N+](=O)[O-])c2)c1` (stereo unspecified), the IC50 is 5.38 µM and the IC90 was 23.6 µM.
For `O=C1c2cccc3c([N+](=O)[O-])ccc(c23)C(=O)N1O`, in that order: 8.11 µM and 13.8 µM.
For `CCCCn1nc(C(=O)Nc2ccccc2N2CCCC2)c2ccccc2c1=O`, in that order: 11.8 µM and > 100 µM.
For `O=C(NCc1nnnn1-c1ccc(F)cc1)c1ccc([N+](=O)[O-])o1`, the half-maximal inhibitory concentration (IC50) was 16.5 µM and the 90% effect concentration (IC90) was 74.1 µM.
On the same counts, the results for `CCOc1ccc(NC(=O)CSc2cn[nH]n2)cc1` are 57.1 µM and > 100 µM.

The values are drawn from PubChem BioAssay AID449762 (Southern Research Specialized Biocontainment Screening …, 2010).
